Assay results reported in patent US20200316021A1, “Dosing Regimen of Siponimod” (NOVARTIS AG, priority 2017, published 2020).

Columns and labels:
[1] = in vivo, iv
Text: (§1) The safety of the i.v. route in humans was supported by a local tolerance study in rabbit and cardiovascular safety studies in guinea pig, rat and rabbit using i.v. (bolus) route.

[2] = phase II dose finding study in relapsing-remitting multiple sclerosis (CBAF312A2201), MRI brain lesion parameters; type: in vivo, human; conditions: RRMS patients
Method: In a phase II dose finding study of siponimod in patients with relapsing-remitting multiple sclerosis (CBAF312A2201) safety, tolerability and efficacy on magnetic resonance imaging (MRI) brain lesion parameters were evaluated. The dose response curve for the MRI-based efficacy of siponimod given orally once daily compared with placebo was determined.
The dose-response curve as defined by the primary endpoint, favored the upper part of this range, i.e. a dose in the range of siponimod 2 mg, since efficacy seemed to decrease with lower doses. Siponimod achieved positive results in a clinical trial for the treatment of RRMS patients (Selmaj et al., Lancet Neurol, 2013, 12, 756-767) and is currently being investigated in an ongoing phase III study (EXPAND) in patients with SPMS. The dose of 2 mg of siponimod was the chosen dose for this follow up phase III study.

[3] = randomized, placebo-controlled clinical study of siponimod in ischemic stroke, modified Rankin Scale; type: in vivo, human; conditions: two week treatment daily, 7 days i.v. with titration followed by 7 days p.o., 10 mg maintenance
Text: The clinical study investigates the initial efficacy and safety of siponimod administered on top of standard-of-care compared to placebo in patients with ischemic stroke). This is a randomized, doubled-blinded, placebo-controlled, parallel group study of siponimod on top of standard-of-care for ischemic stroke, consisting of 3 epochs: Screening/Baseline, Treatment, and Follow-Up (see FIG. 1).
These patients continue to be followed for the remainder of the assessment schedule (Table 3). i.v. Dose Titration
The siponimod i.v. dosing regimen is as follows: • Day 1: 0.25 mg over 6 hours (×2), then 0.5 mg over 6 hours, then 0.75 mg over 6 hours for a total Day 1 dose of 1.75 mg • Day 2: 1.25 mg over 6 hours, then 2 mg over 6 hours, then 2.5 mg over 6 hours (×2) for a total Day 2 dose of 8.25 mg • Days 3 through Day 7: 2.5 mg over 6 hours (×4) for a total daily dose of 10 mg. • If patient can swallow then the administration from Day 8 to Day 14 is oral.
The modified Rankin Scale (mRS), is a widely-used, clinician-assessed instrument, and is considered the current standard assessment for stroke outcomes by most Health Authorities. It consists of 6 grades of disability, higher scores indicating more severe disability (0=asymptomatic, 6=dead).
The mRS score at 90 days after ischemic stroke is the primary endpoint for measuring siponimod efficacy in this study. […]

[4] = half-life and brain penetration of siponimod; conditions: in vivo
Method: (§2) Siponimod is a second generation S1 P receptor modulator that reduces peripheral lymphocyte counts approximately 4-6 hours (h) after the first dose. […] Siponimod's mode of action is believed to include S1P1-mediated prevention of effector lymphocyte recirculation from lymphatic tissue to sites of inflammation, such as the central nervous system (CNS). In addition, there may be direct beneficial effects in the CNS mediated by S1P1 and/or S1P5. […] Thus, siponimod may display additional beneficial activities in the CNS.

[5] = test system: Absolute Lymphocyte Count (ALC); test: i.v. versus oral siponimod study in healthy subjects: PD (ALC) effects; type: in vivo, human; conditions: i.v. 0.25 mg over 3 hour and 1 mg over 24 hours vs oral doses at same dose levels
Method: (§3) In said study with siponimod administered intravenously, PK and PD were determined. […] This finding was consistent with previous oral administrations of 0.25 mg (starting dose of the oral initial period dosing regimen).

[6] = test system: CYP2C9, CYP3A4; conditions: humans; cited from earlier work
[7] = test system: Absolute Lymphocyte Count (ALC); test: multiple ascending dosing study (MAD study) in healthy subjects: decline of Absolute Lymphocyte Count; type: in vivo, human; conditions: 0.3 mg to 10 mg dose
Method: (§4) In another study in healthy subjects siponimod was administered in multiple doses, i.e. 0.3, 1, 2.5, 10 and 20 mg, over 28 days (multiple ascending dosing study, MAD study).
Amongst the various potential factors which may contribute to the reduction of inflammation, and which may therefore contribute to the efficacy of a treatment by siponimod, one important factor is the reduction of the Absolute Lymphocyte Count (ALC), being ALC known to play an important role in the inflammatory processes, including those in the brain. The exact mechanism by which an S1P receptor modulation may mitigate stroke pathophysiology is/still not fully elucidated and thus, besides the Absolute Lymphocyte Count related effect (ALC-related effect), other potential mechanisms may play a role.

[8] = i.v. siponimod study in healthy subjects: cardiac safety; type: in vivo, human; conditions: i.v. 0.25 mg over 3 hours and 1 mg over 24 hours (4x0.25 mg/6 hours)
Method: (§5) A comparison of bradyarrhythmic effects (H R, AVB, SP) of a 1 mg oral dose from previous studies and a 1 mg/day i.v. dose infused over 24 h in healthy subjects supported the hypothesis that such effects are related to the slope of the concentration-time curve.
as §3

[9] = i.v. versus oral siponimod study in healthy subjects (absolute bioavailability): pharmacokinetics; type: in vivo, human
Method: as §5
In said study with siponimod administered intravenously, PK and PD were determined. […] This finding was consistent with previous oral administrations of 0.25 mg (starting dose of the oral initial period dosing regimen). The results of this clinical study were the following:
as §1

[10] = multiple-dose titration clinical study in healthy subjects: daily chronotropic effects (heart rate); type: in vivo, human
Method: S1P receptor modulators, as mentioned above, are known to cause dose dependent transient decrease in heart rate within 2-3 hours of drug intake (Legangneux et al 2012, Hoch et al 2014). In order to evaluate on how to best mitigate the bradyarrhythmic risk of siponimod, a multiple-dose titration clinical study in healthy subjects was run.
The primary objective of this study was to measure the daily chronotropic effects of two siponimod dose-titration regimens (from 0.25 mg to 10 mg; Dose Titration (DT) 1# and 2#, respectively) compared to daily chronotropic effects of oral siponimod 10 mg (fixed dose, once daily) and placebo over 12 days. The heart rate (HR) changes have been compared between subjects exposed to 10 mg siponimod once daily (QD) with or without 2 different up-titration schemes. The titration scheme of this study was: • DT 1#: Day 1: 0.25 mg; Day 2: 0.25 mg; Day 3: 0.25 mg; Day 4: 0.5 mg; Day 5: 1.0 mg; Day 6: 2.0 mg; Day 7: 4.0 mg; Day 8: 8.0 mg and from Day 9 to Day 12: 10.0 mg daily. • DT 2#: Day 1: 0.25 mg; Day 2: 0.25 mg; Day 3: 0.5 mg; Day 4: 0.75 mg; Day 5: 1.25 mg; Day 6: 2.0 mg; Day 7: 3.0 mg; Day 8: 5.0 mg; from Day 9 to Day 12: 10.0 mg daily.
This effect was maintained until end of treatment on Day 12. […] It was then concluded that both titration regimens effectively attenuated the initial bradycardia observed on Day 1 of treatment with siponimod 10 mg daily fixed-dose.

[11] = siponimod single dose study (SAD study) in healthy volunteers; type: in vivo; conditions: healthy subjects
[12] = multiple ascending dosing study (MAD study) in healthy subjects: adverse events; type: in vivo, human; conditions: 20 mg multiple dose over 28 days
Method: as §4

[13] = clinical study of siponimod pharmacokinetics in CYP2C9 poor metabolizers; type: in vivo, human; conditions: for AUC compared with reference AUC of extensive metabolizers (CYP2C9*1*1): poor metabolizers
Text: In addition to the previously described benefits, the dosing regimen of the present disclosure has also the advantage to highly reduce the additional risks run by the CYP2C9 poor metabolizer.

[14] = test system: peripheral lymphocyte counts; test: reduction and recovery of peripheral lymphocyte counts; type: in vivo
Method: as §2

**Q.** With CCc1cc(/C(C)=N/OCc2ccc(C3CCCCC3)c(C(F)(F)F)c2)ccc1CN1CC(C(=O)O)C1 [siponimod, 1-{4-[(1E)-N-{[4-cyclohexyl-3-(trifluoromethyl)benzyl]oxy}ethanimidoyl]-2-ethylbenzyl}-3-azetidine carboxylic acid] as the compound, how does the “cardiovascular effects in i.v. cardiovascular safety studies” value [1] read?
**A.** Cmax-related transient cardiovascular effects

**Q.** What about the “MRI-based efficacy and safety of the dose range” value ([2]; 1.25 mg to 2 mg dose range orally once daily) of the same compound?
**A.** close to maximal efficacy, with a good safety profile

**Q.** And the “MRI-based efficacy compared to 2 mg” value ([2]; 10 mg orally once daily)?
**A.** little additional efficacy compared to 2 mg

**Q.** And the safety profile ([2]; 10 mg orally once daily)?
**A.** worse safety profile

**Q.** What about the “global functioning measured by modified Rankin Scale (mRS) score on Day 90 after ischemic stroke, compared to placebo” value [3] of the same compound?
**A.** improved global functioning

**Q.** And the “crossing of the blood brain barrier” value [4]?
**A.** readily crosses the blood brain barrier

**Q.** And the “magnitude of PD (ALC) effects % Emax, i.v. versus oral” value [5]?
**A.** comparable to the effects after oral doses at the same dose levels

**Q.** And the “enzymes eliminating siponimod by metabolism” value [6]?
**A.** mainly by CYP2C9, followed by CYP3A4

**Q.** What about the “acute ALC response on Day 1 of treatment” value [7] of the same compound?
**A.** dose-dependent decline of ALC

**Q.** And the “cardiac safety profile of i.v. infusions” value [8]?
**A.** excellent cardiac safety profile

**Q.** And the “dose and time dependence of pharmacokinetics” value ([9]; human, in vivo)?
**A.** dose linear and time-independent pharmacokinetics

**Q.** And the bioavailability ([9]; human, in vivo, 0.25 mg, oral versus i.v., healthy subjects, read-out: oral bioavailability F %)?
**A.** 84%

**Q.** What about the half-life ([9]; human, in vivo, other: oral and intravenous (range over both routes), oral and i.v. route, read-out: terminal T1/2) of the same compound?
**A.** 1620 to 1980 min

**Q.** What about the “median i.v. Tmax” value ([9]; i.v. infusion over 3 hours and 24 hours) of the same compound?
**A.** at the end of the 3 hour and 24 hour infusions

**Q.** And the “geometric mean oral Cmax lower than mean i.v. Cmax” value ([9]; oral versus i.v.)?
**A.** ~48%

**Q.** And the “reduction in heart rate vs. placebo” value ([10]; Day 1, either titration regimen)?
**A.** no statistically significant reduction in heart rate vs. placebo

**Q.** And the “reduction in HR” value ([10]; Days 3 to 7, DT 1# and DT 2#)?
**A.** minor reductions in HR

**Q.** And the “heart rates versus placebo” value ([10]; by Day 9 until Day 12, both titration regimens)?
**A.** comparable to placebo

**Q.** And the “bradycardia or AV conduction effects” value ([10]; dose titration regimens DT 1# and DT 2#, 0.25 mg to 10 mg, 12 days, healthy subjects)?
**A.** Neither DT 1# nor DT 2# resulted in clinically significant bradycardia or AV conduction effects

**Q.** And the “heart rates versus placebo” value ([10]; non-titration regimen, 10 mg fixed dose once daily)?
**A.** considerable separation from placebo throughout the study

**Q.** And the “bradyarrhythmia at the starting dose” value ([10]; starting dose 0.25 mg of the DT regimens)?
**A.** not associated with bradyarrhythmia

**Q.** What about the “safety and tolerability of the 25 mg single dose” value ([11]; 25 mg single dose) of the same compound?
**A.** favorable safety and tolerability profile

**Q.** And the “single maximum tolerated dose (single MTD)” value ([11]; single dose)?
**A.** 25 mg

**Q.** And the “adverse events at the maximum investigated multiple dose” value [12]?
**A.** symptomatic bradycardia as the only relevant adverse event

**Q.** What about the “Cmax in poor versus extensive metabolizers” value ([13]; CYP2C9 poor metabolizers) of the same compound?
**A.** only slightly greater

**Q.** And the “Tmax in poor versus extensive metabolizers” value ([13]; CYP2C9 poor metabolizers)?
**A.** comparable in poor and extensive metabolizers

**Q.** And the “AUC compared with reference AUC of extensive metabolizers (CYP2C9*1*1)” value ([13]; first value printed (first-named genotype CYP2C9*2*3))?
**A.** approximately 2 fold

**Q.** And the “AUC compared with reference AUC of extensive metabolizers (CYP2C9*1*1)” value ([13]; second value printed (second-named genotype))?
**A.** ~4 fold

**Q.** What about the “time to reduction of peripheral lymphocyte counts after the first dose” value ([14]; after the first dose) of the same compound?
**A.** 4 to 6 h

**Q.** And the “recovery of the baseline lymphocyte counts” value ([14]; after treatment withdrawal)?
**A.** within a week after treatment withdrawal
